Results from DBAASP.
In brackets after ≈: the same amount, converted by molar mass.

Key:
Experiment in all cases: ≥ marks a high value that may be exact or a test limit, other limits are often not marked, values filed in µg/mL are converted to µM
Escherichia coli B = test system: Escherichia coli B
Staphylococcus aureus = test system: Staphylococcus aureus
Pseudomonas aeruginosa = test system: Pseudomonas aeruginosa
Bacillus subtilis 168 = test system: Bacillus subtilis 168
[1] = test system: Candida albicans ATCC 2002
[2] = test system: Staphylococcus aureus ATCC 2592
[3] = test system: Escherichia coli ATCC 25922
[4] = test system: Bacillus subtilis ATCC 6633
[5] = test system: Staphylococcus aureus ATCC 33591
Acinetobacter baumannii = test system: Acinetobacter baumannii
Escherichia coli UB1005 = test system: Escherichia coli UB1005
[6] = test system: Salmonella enterica subsp. enterica serovar Typhimurium C77-31
[7] = test system: Staphylococcus aureus ATCC 29213
[8] = test system: Staphylococcus epidermidis ATCC 12228
Escherichia coli = test system: Escherichia coli
[9] = test system: Staphylococcus aureus ATCC 25923
[10] = test system: Klebsiella pneumoniae ATCC 700603
[11] = test system: Pseudomonas aeruginosa ATCC 9027

Structure (SMILES) | MIC (Escherichia coli B) | MIC (Staphylococcus aureus) | MIC (Pseudomonas aeruginosa) | MIC (Bacillus subtilis 168) | MIC [3] | further results
CC[C@H](C)[C@H](NC(=O)[C@H](CC(C)C)NC(=O)[C@H](Cc1cnc[nH]1)NC(=O)[C@@H]1CCCN1C(=O)[C@H](CC(C)C)NC(=O)[C@@H](NC(=O)[C@H](CCCCN)NC(=O)[C@H](CO)NC(=O)[C@H](Cc1c[nH]c2ccccc12)NC(=O)[C@H](CCSC)NC(=O)CN)[C@@H](C)CC)C(=O)N[C@@H](CCCN=C(N)N)C(N)=O [GMWSKILPHLIR] | 20 µM (≈ 29 µg/mL) | > 100 µM | > 100 µM | 3.3 µM (≈ 4.78 µg/mL) |  | 
CC[C@H](C)[C@H](NC(=O)[C@H](CCCN=C(N)N)NC(=O)[C@@H](NC(=O)[C@@H]1CCCN1C(=O)[C@@H](NC(=O)[C@@H](NC(=O)[C@H](CCC(N)=O)NC(=O)[C@@H]1CCCN1C(=O)[C@@H](NC(=O)[C@@H](NC(=O)[C@H](Cc1cnc[nH]1)NC(=O)[C@@H]1CCCN1C(=O)[C@@H]1CCCN1C(=O)[C@@H](NC(=O)CNC(=O)CNC(=O)[C@H](C)NC(=O)[C@H](CCCCN)NC(=O)[C@H](C)N)[C@@H](C)CC)C(C)C)[C@@H](C)CC)[C@@H](C)CC)C(C)C)C(C)C)C(=O)N[C@@H](CCCN=C(N)N)C(=O)N1CCC[C@H]1C(=O)N[C@@H](CC(C)C)C(=O)N[C@@H](CS)C(=O)NCC(=O)N[C@@H](CC(N)=O)C(=O)N[C@H](C(=O)O)C(C)C [AKAGGIPPHVIPQIVPVRIRPLCGNV] |  |  |  |  | 18.5 µM (≈ 50 µg/mL) | MIC [1]: 9.25 µM (≈ 25 µg/mL); MIC [2]: 4.66 µM (≈ 12.6 µg/mL)
CC[C@H](C)[C@H](N)C(=O)N[C@@H](CC(C)C)C(=O)NCC(=O)N[C@@H](CCCCN)C(=O)N[C@H](C(=O)N[C@H](C(=O)N[C@@H](CCCCN)C(=O)N[C@H](C(=O)N[C@H](C(=O)N[C@@H](CCCCN)C(N)=O)C(C)C)C(C)C)[C@@H](C)CC)[C@@H](C)CC [ILGKIIKVVK] | ≥ 40 µM | > 100 µM | > 100 µM | ≥ 40 µM |  | 
CC[C@H](C)[C@H](NC(=O)[C@H](CO)NC(=O)[C@H](CC(C)C)NC(=O)[C@H](Cc1ccccc1)NC(=O)CN)C(=O)N[C@@H](CC(C)C)C(=O)N[C@@H](CCCCN)C(=O)N[C@@H](CCCCN)C(=O)N[C@H](C(=O)N[C@@H](CC(C)C)C(=O)N[C@@H](C)C(=O)N[C@@H](CCCCN)C(=O)N[C@H](C(=O)N[C@@H](CCSC)C(=O)N[C@@H](C)C(=O)N[C@@H](Cc1cnc[nH]1)C(=O)N[C@@H](CCSC)C(=O)N[C@@H](CCCCN)C(N)=O)C(C)C)C(C)C [GFLSILKKVLAKVMAHMK] | 1.6 µM (≈ 3.22 µg/mL) | 4.7 µM (≈ 9.46 µg/mL) | 18.3 µM (≈ 36.8 µg/mL) | 1.3 µM (≈ 2.62 µg/mL) |  | 
CC[C@H](C)[C@H](NC(=O)[C@H](CCCCN)NC(=O)[C@@H]1CCCN1C(=O)[C@H](CC(C)C)NC(=O)[C@@H](NC(=O)[C@H](CO)NC(=O)CNC(=O)[C@H](CC(C)C)NC(=O)[C@H](C)NC(=O)CNC(=O)[C@H](CC(C)C)NC(=O)[C@@H](NC(=O)[C@H](CC(C)C)NC(=O)[C@@H]1CCCN1C(=O)[C@H](Cc1ccccc1)NC(=O)[C@@H](N)Cc1ccccc1)C(C)C)[C@@H](C)CC)C(=O)N[C@@H](Cc1ccccc1)C(N)=O [FFPLVLGALGSILPKIF] |  |  |  |  |  | MIC [4]: 5.46 µM (≈ 9.99 µg/mL); MIC [2]: 10.9 µM (≈ 20 µg/mL)
CC[C@H](C)[C@H](NC(=O)[C@H](CCCCN)NC(=O)[C@H](CO)NC(=O)[C@H](Cc1c[nH]c2ccccc12)NC(=O)[C@H](CCSC)NC(=O)CN)C(=O)N[C@@H](CC(C)C)C(=O)NCC(=O)N[C@@H](Cc1cnc[nH]1)C(=O)N[C@@H](CC(C)C)C(=O)N[C@@H](CCCCN)C(=O)N[C@@H](CCCN=C(N)N)C(N)=O [GMWSKILGHLKR] | 28.3 µM (≈ 40.3 µg/mL) | 100 µM (≈ 142 µg/mL) | 93 µM (≈ 133 µg/mL) | 2.2 µM (≈ 3.13 µg/mL) |  | 
CC[C@H](C)[C@H](NC(=O)[C@@H](N)CCCCN)C(=O)N[C@@H](Cc1c[nH]c2ccccc12)C(=O)N[C@@H](Cc1ccccc1)C(=O)N[C@@H](CCC(N)=O)C(=O)N[C@@H](CC(N)=O)C(=O)N[C@@H](CCCCN)C(=O)N[C@@H](CCCCN)C(=O)N[C@@H](CCSC)C(=O)N[C@@H](CCCCN)C(=O)N[C@@H](Cc1c[nH]c2ccccc12)C(=O)N[C@@H](CCCCN)C(=O)N[C@@H](CCCCN)C(N)=O [KIWFQNKKMKWKK] |  |  |  |  | 256 µM (≈ 459 µg/mL) | MIC [5]: ≥ 256 µM
CC[C@H](C)[C@H](NC(=O)[C@H](CC(C)C)NC(=O)[C@H](Cc1cnc[nH]1)NC(=O)CNC(=O)[C@H](CC(C)C)NC(=O)[C@@H](NC(=O)[C@H](CCCCN)NC(=O)[C@H](CO)NC(=O)[C@@H](N)Cc1c[nH]c2ccccc12)[C@@H](C)CC)C(=O)N[C@@H](CCCN=C(N)N)C(N)=O [WSKILGHLIR] | ≥ 100 µM | > 100 µM | > 100 µM | 18.3 µM (≈ 22.4 µg/mL) |  | 
CC[C@H](C)[C@@H]1NC(=O)[C@H](CO)NC(=O)[C@H](CCCCN)NC(=O)[C@H]([C@@H](C)O)NC(=O)[C@H](Cc2c[nH]c3ccccc23)NC(=O)[C@@H](NC(=O)CN)CSSC[C@@H](C(=O)N[C@@H](Cc2ccccc2)C(=O)O)NC(=O)[C@@H]2CCCN2C(=O)[C@H](CCCCN)NC(=O)[C@@H]2CCCN2C(=O)[C@@H]2CCCN2C1=O [GCWTKSIPPKPCF] |  |  |  |  |  | MIC [2]: 2.22 µM (≈ 3.25 µg/mL)
CC[C@H](C)[C@H](NC(=O)[C@H](Cc1cnc[nH]1)NC(=O)[C@H](CCCCN)NC(=O)[C@H](CC(C)C)NC(=O)[C@H](CC(C)C)NC(=O)[C@H](CO)NC(=O)[C@H](CCSC)NC(=O)[C@H](Cc1c[nH]c2ccccc12)NC(=O)[C@H](CCCCN)NC(=O)CN)C(=O)N[C@@H](Cc1c[nH]c2ccccc12)C(=O)N[C@@H](CCCCN)C(N)=O [GKWMSLLKHIWK] | 5 µM (≈ 7.63 µg/mL) | 12.2 µM (≈ 18.6 µg/mL) | 25 µM (≈ 38.1 µg/mL) | 1.3 µM (≈ 1.98 µg/mL) |  | 
CC[C@H](C)[C@H](NC(=O)CNC(=O)CNC(=O)[C@H](C)NC(=O)[C@H](CCCCN)NC(=O)[C@H](C)N)C(=O)NCC(=O)NCC(=O)N[C@@H](Cc1cnc[nH]1)C(=O)N[C@H](C(=O)N[C@H](C(=O)NCC(=O)N[C@@H](CCC(N)=O)C(=O)N[C@H](C(=O)N[C@H](C(=O)NCC(=O)N[C@H](C(=O)N[C@@H](CCCN=C(N)N)C(=O)N[C@H](C(=O)N[C@@H](CCCN=C(N)N)C(=O)NCC(=O)N[C@@H](CC(C)C)C(=O)NCC(=O)NCC(=O)N[C@@H](CC(N)=O)C(=O)N[C@H](C(=O)O)C(C)C)[C@@H](C)CC)C(C)C)C(C)C)[C@@H](C)CC)[C@@H](C)CC)C(C)C [AKAGGIGGHVIGQIVGVRIRGLGGNV] |  |  |  |  | 20.4 µM (≈ 50 µg/mL) | MIC [1]: 20.4 µM (≈ 50 µg/mL); MIC [2]: 2.57 µM (≈ 6.3 µg/mL)
CC(C)[C@H](NC(=O)[C@H](CCCN=C(N)N)NC(=O)[C@H](Cc1c[nH]c2ccccc12)NC(=O)[C@H](CCCN=C(N)N)NC(=O)[C@@H](NC(=O)[C@H](CCCCN)NC(=O)[C@H](Cc1c[nH]c2ccccc12)NC(=O)[C@H](CCCN=C(N)N)NC(=O)[C@@H](NC(=O)[C@H](CCCN=C(N)N)NC(=O)[C@@H](N)Cc1c[nH]c2ccccc12)C(C)C)C(C)C)C(=O)N[C@@H](CCCCN)C(N)=O [WRVRWKVRWRVK] |  | 2 µM (≈ 3.51 µg/mL) | 4 µM (≈ 7.02 µg/mL) |  | 4 µM (≈ 7.02 µg/mL) | MIC (Acinetobacter baumannii): 2.83 µM (≈ 4.96 µg/mL); MIC (Escherichia coli UB1005): 2 µM (≈ 3.51 µg/mL); MIC [6]: 2 µM (≈ 3.51 µg/mL); MIC [7]: 1 µM (≈ 1.75 µg/mL); MIC [8]: 2 µM (≈ 3.51 µg/mL); MIC (Escherichia coli): 1 µM (≈ 1.75 µg/mL); MIC [9]: 2 µM (≈ 3.51 µg/mL)
CC[C@H](C)[C@H](NC(=O)[C@H](CCCCN)NC(=O)[C@H](CCCCN)NC(=O)[C@H](Cc1c[nH]c2ccccc12)NC(=O)[C@H](CC(N)=O)NC(=O)[C@@H](N)C(C)C)C(=O)N[C@@H](CC(C)C)C(=O)NCC(N)=O [VNWKKILG] | ≥ 100 µM | > 100 µM | > 100 µM | ≥ 200 µM |  | 
CC(C)C[C@H](NC(=O)[C@H](CCCN=C(N)N)NC(=O)[C@H](Cc1c[nH]c2ccccc12)NC(=O)[C@H](CCCN=C(N)N)NC(=O)[C@@H](NC(=O)[C@H](CCCN=C(N)N)NC(=O)[C@H](Cc1c[nH]c2ccccc12)NC(=O)[C@H](CCCN=C(N)N)NC(=O)[C@H](CC(C)C)NC(=O)[C@H](CCCN=C(N)N)NC(=O)[C@@H](N)Cc1c[nH]c2ccccc12)[C@@H](C)O)C(=O)N[C@@H](CCCN=C(N)N)C(N)=O [WRLRWRTRWRLR] |  | 2 µM (≈ 3.68 µg/mL) | 16 µM (≈ 29.4 µg/mL) |  | 4 µM (≈ 7.36 µg/mL) | MIC (Acinetobacter baumannii): 4 µM (≈ 7.36 µg/mL); MIC (Escherichia coli UB1005): 4 µM (≈ 7.36 µg/mL); MIC [6]: 4 µM (≈ 7.36 µg/mL); MIC [7]: 2 µM (≈ 3.68 µg/mL); MIC [8]: 2 µM (≈ 3.68 µg/mL); MIC (Escherichia coli): 2 µM (≈ 3.68 µg/mL); MIC [9]: 2 µM (≈ 3.68 µg/mL)
CC[C@H](C)[C@H](NC(=O)[C@H](C)N)C(=O)N[C@@H](CC(C)C)C(=O)N[C@@H](CCCN=C(N)N)C(=O)N[C@@H](CCCCN)C(=O)N[C@@H](C)C(=O)N[C@H](C(=O)N[C@@H](CCCN=C(N)N)C(=O)N[C@@H](CCCN=C(N)N)C(=O)N[C@@H](CC(C)C)C(=O)N[C@H](C(=O)N[C@@H](CCCCN)C(=O)N[C@@H](CC(C)C)C(=O)N[C@H](C(=O)N[C@H](C(N)=O)C(C)C)[C@@H](C)CC)C(C)C)[C@@H](C)O [AILRKATRRLVKLIV] |  |  |  |  | 20 µM (≈ 35 µg/mL) | MIC [10]: > 25 µM; MIC (Acinetobacter baumannii): 6.25 µM (≈ 10.9 µg/mL); MIC [9]: > 25 µM; MIC [11]: 20 µM (≈ 35 µg/mL)
